In patent US8710044B2, “Bicyclic azaheterocyclic carboxamides” (Merck Patent GmbH, priority 2010, dated 2014):

Target: T1, P70S6K (T412E mutant, Millipore) (Homo sapiens, UniProt P23443, T412E)
T1 construct: purchased Millipore
Assay: P70S6K Enzyme Assay
Format: biochemical
Details: 3 nM enzyme, 24 μM ATP, 1 μM FITC-AHA-[…]-OH substrate peptide, 90 min at 25° C., Caliper Lab Chip 3000
Description: P70S6K inhibitor compounds are diluted and plated in 96 well plates. […] The reaction is incubated for 90 min at 25° C., before the addition of 10 mM EDTA to stop the reaction. The proportion of substrate and product (phosphorylated) peptide is analysed on a Caliper Life Sciences Lab Chip 3000, using a pressure of −1.4 psi, and upstream and downstream voltages of −3000 and −700 respectively. Product peaks are resolved before substrate peaks on the resulting chromatograms.

T1 sequence (P23443 whole entry T412E): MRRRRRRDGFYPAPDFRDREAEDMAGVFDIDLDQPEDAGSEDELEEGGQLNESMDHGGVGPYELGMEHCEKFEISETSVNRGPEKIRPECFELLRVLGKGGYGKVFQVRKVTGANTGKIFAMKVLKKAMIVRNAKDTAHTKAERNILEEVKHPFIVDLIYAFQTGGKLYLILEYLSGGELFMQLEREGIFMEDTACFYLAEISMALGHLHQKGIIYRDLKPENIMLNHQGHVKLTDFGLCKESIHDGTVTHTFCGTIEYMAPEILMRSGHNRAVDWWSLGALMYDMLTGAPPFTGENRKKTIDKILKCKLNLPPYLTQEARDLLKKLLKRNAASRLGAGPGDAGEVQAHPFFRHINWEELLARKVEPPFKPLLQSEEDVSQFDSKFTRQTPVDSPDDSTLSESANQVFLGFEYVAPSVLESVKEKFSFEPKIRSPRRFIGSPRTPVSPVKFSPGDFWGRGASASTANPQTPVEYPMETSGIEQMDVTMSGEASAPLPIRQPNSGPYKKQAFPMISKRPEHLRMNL

Row | SMILES | IC50 [nM]
1 | CNC[C@@H](Nc1nc(C)nc2c(C(N)=O)cccc12)c1ccc(F)cc1 [Example 16, 4-{[(1S)-1-(4-fluorophenyl)-2-(methylamino)ethyl]amino}-2-methylquinazoline-8-carboxamide] | 2.8
2 | CNC[C@@H](Nc1nc(C)nc2c(C(N)=O)cccc12)c1cccc(F)c1 [Example 17, 4-{[(1S)-1-(3-fluorophenyl)-2-(methylamino)ethyl]amino}-2-methylquinazoline-8-carboxamide] | 139
3 | CNC[C@@H](Nc1nc(C(C)C)nc2c(C(N)=O)cccc12)c1ccc(Cl)cc1 [Example 18, 4-{[(1S)-1-(4-chlorophenyl)-2-(methylamino)ethyl]amino}-2-isopropylquinazoline-8-carboxamide] | 23
4 | CNC[C@@H](Nc1nc(C)nc2c(C(N)=O)cccc12)c1ccc(Cl)cc1 [Example 19, 4-{[(1S)-1-(4-chlorophenyl)-2-(methylamino)ethyl]amino}-2-methylquinazoline-8-carboxamide] | 0.83
5 | CCc1nc(N[C@H](CNC)c2cccc(F)c2)c2cccc(C(N)=O)c2n1 [Example 20, 2-Ethyl-4-{[(1S)-1-(3-fluorophenyl)-2-(methylamino)ethyl]amino}quinazoline-8-carboxamide] | 1.97
6 | CCc1nc(N[C@H](CNC)c2cccc(Cl)c2)c2cccc(C(N)=O)c2n1 [Example 21, 4-{[(1S)-1-(3-Chlorophenyl)-2-(methylamino)ethyl]amino}-2-ethylquinazoline-8-carboxamide] | 0.87
7 | CNC[C@@H](Nc1nc(C)nc2c(C(N)=O)cccc12)c1cccc(Cl)c1 [Example 22, 4-{[(1S)-1-(3-Chlorophenyl)-2-(methylamino)ethyl]amino}-2-methylquinazoline-8-carboxamide] | 0.98
8 | CCc1nc(N[C@H](CNC)c2ccccc2)c2cccc(C(N)=O)c2n1 [Example 23, 2-Ethyl-4-{[(1S)-2-(methylamino)-1-phenylethyl]amino}quinazoline-8-carboxamide] | 11
9 | CCc1nc(N[C@H](CNC)c2ccc(Cl)cc2)c2cccc(C(N)=O)c2n1 [Example 24, 4-{[(1S)-1-(4-Chlorophenyl)-2-(methylamino)ethyl]amino}-2-ethylquinazoline-8-carboxamide] | 1.4
10 | CNC[C@@H](Nc1nc(C)nc2c(C(N)=O)cccc12)c1ccccc1 [Example 26, 2-Methyl-4-{[(1S)-2-(methylamino)-1-phenylethyl]amino}quinazoline-8-carboxamide] | 6.46
11 | CNC[C@@H](Nc1nc(C(F)(F)F)nc2c(C(N)=O)cccc12)c1cccc(F)c1 [Example 27, 4-{[(1S)-1-(3-Fluorophenyl)-2-(methylamino)ethyl]amino}-2-(trifluoromethyl)-quinazoline-8-carboxamide] | 4.3
12 | CCc1nc(N[C@H](CN2CCC2)c2cccc(F)c2)c2cccc(C(N)=O)c2n1 [Example 28] | 18.5
13 | Cc1nc(N[C@H](CN2CCC2)c2ccccc2)c2cccc(C(N)=O)c2n1 [Example 29] | 5.84
14 | CCc1nc(N[C@H](CN2CCC2)c2ccccc2)c2cccc(C(N)=O)c2n1 [Example 30] | 33.6
15 | Cc1nc(N[C@H](CN2CCC2)c2ccc(Cl)cc2)c2cccc(C(N)=O)c2n1 [Example 31] | 2.6
16 | CCc1nc(N[C@H](CN2CCC2)c2ccc(Cl)cc2)c2cccc(C(N)=O)c2n1 [Example 32] | 5.5

Row | SMILES | IC50 [nM]
17 | Cc1nc(N[C@H](CN2CCC2)c2ccc(F)cc2)c2cccc(C(N)=O)c2n1 [Example 33] | 44
18 | Cc1nc(N[C@H](CN2CCC2)c2cccc(F)c2)c2cccc(C(N)=O)c2n1 [Example 34] | 7
19 | CCc1nc(N[C@H](CN2CCC2)c2ccc(F)cc2)c2cccc(C(N)=O)c2n1 [Example 36] | 30
20 | CNC[C@@H](Nc1nc(C)nc2c(C(N)=O)cccc12)c1cc(F)ccc1OC [Example 47, 4-[(S)-1-(5-Fluoro-2-methoxy-phenyl)-2-methylamino-ethylamino]-2-methyl-quinazoline-8-carboxylic acid amide] | 12
21 | CNC[C@@H](Nc1nc(C)nc2c(C(N)=O)cccc12)c1ccc(C(F)(F)F)cc1 [Example 48, 2-Methyl-4-[(S)-2-methylamino-1-(4-trifluoromethyl-phenyl)-ethylamino]-quinazoline-8-carboxylic acid amide] | 1
22 | Cc1nc(N[C@@H](Cc2ccccc2)CN(C)C)c2cccc(C(N)=O)c2n1 [Example 49, 4-((S)-1-Benzyl-2-dimethylamino-ethylamino)-2-methyl-quinazoline-8-carboxylic acid amide] | 452
23 | CNC[C@@H](Nc1nc(C)nc2c(C(N)=O)cccc12)c1ccc(F)cc1C(F)(F)F [Example 50, 4-[(1S)-1-[4-fluoro-2-(trifluoromethyl)phenyl]-2-(methylamino)ethyl]amino-2-methylquinazoline-8-carboxamide] | 260
24 | NC[C@@H](Nc1nc(C(F)(F)F)nc2c(C(N)=O)cccc12)c1ccccc1 [Example 51, 4-((S)-2-Amino-1-phenyl-ethylamino)-2-trifluoromethyl-quinazoline-8-carboxylic acid amide] | 8
25 | CNC[C@@H](Nc1nc(C)nc2c(C(N)=O)cccc12)c1ccc(OC(F)(F)F)c(Cl)c1 [Example 52] | 1
26 | CNC[C@@H](Nc1nc(C)nc2c(C(N)=O)cccc12)c1cc(F)ccc1F [Example 53] | 3
27 | CNC[C@@H](Nc1nc(C)nc2c(C(N)=O)cccc12)c1ccc(F)cc1F [Example 54] | 7
28 | CNC[C@@H](Nc1nc(C)nc2c(C(N)=O)cccc12)c1c(F)cccc1F [Example 55] | 6
29 | CNC[C@@H](Nc1nc(C)nc2c(C(N)=O)cccc12)c1cc(F)c(F)cc1F [Example 56, (S)-2-methyl-4-((2-(methylamino)-1-(2,4,5-trifluorophenyl)ethyl)amino)quinazoline-8-carboxamide] | 1
30 | CCc1nc(N[C@H](CNC)c2cccc(F)c2Cl)c2cccc(C(N)=O)c2n1 [Example 60, (S)-4-((1-(2-chloro-3-fluorophenyl)-2-(methylamino)ethyl)amino)-2-ethylquinazoline-8-carboxamide] | 9
31 | CNC[C@@H](Nc1nc(C)nc2c(C(N)=O)cccc12)c1ccc(Cl)c(Cl)c1 [Example 61] | 330
